Assay results published in PMC12040169 (PLOS Biology, 2025).

Experiment: in vitro
Conditions: human, hela cells, % viability

With `O=C(O)CC1S\C(=N/N=C\C=C/c2ccccc2)N(c2ccc(O)cc2)C1=O` (centres unmarked) [CBK263688] the viability at 28.5 h, 10 µM was 93%.
For `Cc1csc(C(=O)N2CCC(c3cc(O)cc(C)n3)CC2)c1` [CBK283466], the viability at 28.5 h, 10 µM was 89%.
Work on `COc1ccc(-c2nc(NC(=O)COc3ccc(C)c4c3CCC4)cnc2-c2ccc(F)cc2)cc1` [CBK036990] yielded a viability at 28.5 h, 10 µM of 88.7%.
For `Cc1cc(CC(=O)Nc2ccc3[nH]ccc3c2)on1` [CBK159690], the viability at 28.5 h, 10 µM was 103%.
Compound `CC(C)C(Nc1nc2ncn(Cc3ccccc3)c2c(=O)[nH]1)C(=O)O` (centres unmarked) [CBK261685] has a viability at 28.5 h, 10 µM of 91.2%.
`O=C(O)c1cccc(S(=O)(=O)Nc2ccccc2C(=O)NCc2ccccc2)c1` [CBK296697] gave a viability at 28.5 h, 10 µM of 106%.
Work on `COc1ccc(-c2cn3ccnc3c(Nc3ccc(N4CCOCC4)cc3)n2)cc1` [CBK066265] yielded a viability at 28.5 h, 10 µM of 98.5%.
`CCN(CC)C(=O)CN1CCC(Oc2cncc(Oc3ccc(OC)c(OC)c3)n2)C1` (centres unmarked) [CBK084404] showed a viability at 28.5 h, 10 µM of 93.9%.
Work on `CSCCCNC(=O)N(CCC#N)C1CCCCC1` [CBK156348] yielded a viability at 28.5 h, 10 µM of 104%.
Work on `CN(C)S(=O)(=O)c1c(Cl)cccc1Cl` [CBK091643] yielded a viability at 28.5 h, 10 µM of 84%.
For `O=C(CSc1nnc(Cc2cccs2)n1-c1ccccc1)Nc1ccc(F)c(Cl)c1` [CBK267589], the viability at 28.5 h, 10 µM was 92.3%.
Work on `COc1ccc(C2Sc3ccccc3N(CCN(C)C)C(=O)C2OC(C)=O)cc1` (centres unmarked) [CBK010647] yielded a viability at 28.5 h, 10 µM of 98%.
`CCOC(=O)N1CCC(NS(=O)(=O)c2cc(Br)c(Cl)s2)CC1` [CBK045472] gave a viability at 28.5 h, 10 µM of 95.8%.
`FC(F)(F)c1cccc(CSc2nc3ccccc3nc2N2CCCC2)c1` [CBK107190] gave a viability at 28.5 h, 10 µM of 91.5%.
For `NC1=NNC2=C(c3cccc(Cl)c3)NNN12` [CBK093661], the viability at 28.5 h, 10 µM was 87.3%.
Compound `C=CCN1C(=O)CC2(C1=O)C(=O)N(CC)c1ccc(F)cc12` (centres unmarked) [CBK075316] has a viability at 28.5 h, 10 µM of 115%.
`Cc1[nH]c(=O)[nH]c(=O)c1N(CCO)CCO` [CBK262052] gave a viability at 28.5 h, 10 µM of 94.8%.
Work on `Cn1ccnc1C1(O)CCN(C(=O)NCc2ccccc2)CC1` [CBK282276] yielded a viability at 28.5 h, 10 µM of 94.9%.
`Nc1ncc(-c2cccc(F)c2)nc1NCC1CCOCC1` [CBK063860] showed a viability at 28.5 h, 10 µM of 98.7%.
Work on `O=C(NC1(c2ccc(Cl)cc2)CC1)C1CCS(=O)(=O)C1` (centres unmarked) [CBK282765] yielded a viability at 28.5 h, 10 µM of 75.3%.
For `Brc1cnn(-c2ccccc2)c1` [CBK027172], the viability at 28.5 h, 10 µM was 87.6%.
`CN(CC(=O)Nn1cnnc1)S(=O)(=O)c1ccc(Br)cc1` [CBK268597] showed a viability at 28.5 h, 10 µM of 85.9%.
With `CCOC(=O)c1sc(-c2ccc(Br)cc2)nc1O` [CBK075087] the viability at 28.5 h, 10 µM was 103%.
`O=C(O)c1cccc(NC(=O)c2ccc(S(=O)(=O)N3CCCCC3)cc2)c1` [CBK265185] showed a viability at 28.5 h, 10 µM of 86.1%.
With `CC(=O)N1CCC[C@H]2NC(=O)CNC(=O)C3(C/C=C/C[C@H]21)CCNCC3` [CBK292173] the viability at 28.5 h, 10 µM was 89.8%.
With `CCCOc1ccc(S(=O)(=O)NCc2ccc3c(c2)OCO3)c2ccccc12` [CBK269059] the viability at 28.5 h, 10 µM was 94.3%.
For `COC(=O)c1sc2cc(C(F)(F)F)cnc2c1NC(=O)C1COc2ccccc2O1` (centres unmarked) [CBK115865], the viability at 28.5 h, 10 µM was 107%.
Work on `COc1ccc2c(c1)C1(CC(=O)N(Cc3ccccc3)C1=O)C(=O)N2CCCN1C(=O)c2ccccc2C1=O` (centres unmarked) [CBK075501] yielded a viability at 28.5 h, 10 µM of 93.4%.
Work on `COc1ccc(C2(CNC(=O)C(O)COc3ccccc3)CCCC2)cc1OC` (centres unmarked) [CBK014053] yielded a viability at 28.5 h, 10 µM of 88.5%.
`O=C(c1ccccc1)c1ccc2n1CCC2C(=O)Nc1ccccc1F` (centres unmarked) [CBK300530] gave a viability at 28.5 h, 10 µM of 90.5%.
`O=C(NCCc1ccc(O)cc1)c1ccc(-c2ccc(OC(F)(F)F)cc2)nc1` [CBK156224] gave a viability at 28.5 h, 10 µM of 95.8%.
In the case of `CCCNCCc1ccc(NC(=O)NCCc2ccccc2)cc1` [CBK173873T], the viability at 28.5 h, 10 µM is reported as 93.5%.
Compound `O=C(NC1CCNC1)c1ccc(F)cc1` (centres unmarked) [CBK281632] has a viability at 28.5 h, 10 µM of 87.2%.
Compound `CC1=CCC2(CC1)COC(C(C)(C)CN(C)C)OC2` (centres unmarked) [CBK011369] has a viability at 28.5 h, 10 µM of 91.7%.
`CN1CCN(C(=O)c2cc(Br)cnc2NCCOc2ccccc2)CC1` [CBK076231] gave a viability at 28.5 h, 10 µM of 92%.
In the case of `CCNC(=S)N[C@H]1CC[C@@]2(Cc3ccc(OC)cc3)CCN(C)[C@H]2C1` [CBK004257], the viability at 28.5 h, 10 µM is reported as 101%.
Compound `CC(=O)OCC(=O)Nc1ccc2cc(Br)cnc2n1` [CBK063311] has a viability at 28.5 h, 10 µM of 91.1%.
Compound `CC(=O)Nc1ccc(OCCO)cc1` [CBK149724] has a viability at 28.5 h, 10 µM of 86.6%.
`Cn1c(SCC(=O)Nc2cc(C(C)(C)C)no2)nnc1-c1ccc(C(C)(C)C)cc1` [CBK297133] showed a viability at 28.5 h, 10 µM of 89.6%.
For `O=C(Nc1ccc2ncccc2c1)c1cccc(F)c1Cl` [CBK159800], the viability at 28.5 h, 10 µM was 85.9%.
In the case of `O=C(Nc1ccccc1C(=O)N1CCCC1)c1ccccc1CCc1ccccc1` [CBK268608], the viability at 28.5 h, 10 µM is reported as 104%.
`COc1cccc(NC(=O)c2sc(N)nc2-c2ccccc2)c1` [CBK072023] showed a viability at 28.5 h, 10 µM of 95.2%.
For `c1csc(-c2cc3cccnc3n2CCN2CCOCC2)c1` [CBK282718], the viability at 28.5 h, 10 µM was 80.5%.
Work on `O=C(O)CC1c2ccccc2Oc2ccccc21` [CBK261836] yielded a viability at 28.5 h, 10 µM of 92%.
With `CCOC(=O)CN(C)Cc1c[nH]c2ccccc12` [CBK261869] the viability at 28.5 h, 10 µM was 107%.
`COc1ccc(S(=O)(=O)NC(C)C(=O)NCc2ccncc2)cc1` (centres unmarked) [CBK269441] gave a viability at 28.5 h, 10 µM of 107%.
Work on `CC1(C)NC(=O)N(CCCC(=O)NCc2coc(-c3cccs3)n2)C1=O` [CBK237157] yielded a viability at 28.5 h, 10 µM of 105%.
In the case of `O=C(O)Cn1nnc(-c2ccc(OCc3ccccc3)cc2)n1` [CBK269755], the viability at 28.5 h, 10 µM is reported as 85.1%.
With `O=C(Nc1cccc(C(F)(F)F)c1)N1CCN(CCCCc2ccc(F)cc2)CC1` [CBK013363C] the viability at 28.5 h, 10 µM was 90.4%.
For `COc1ccc2c(c1)c(C)c(C(=O)NC(C)Cc1ccccn1)n2C` (centres unmarked) [CBK281425], the viability at 28.5 h, 10 µM was 98.6%.
Work on `COCCNC(=O)C(Cc1ccc(-c2ccc(S(C)(=O)=O)cc2)cc1)C1CCN(C(=O)OC(C)(C)C)CC1` (centres unmarked) [CBK173129] yielded a viability at 28.5 h, 10 µM of 125%.
With `Cc1nn(C)c(C)c1CN(C)C(=O)CCC(C)N1CCCC1` (centres unmarked) [CBK282001] the viability at 28.5 h, 10 µM was 101%.
`CC1(C)CC(NC(=O)c2cc3cccnc3[nH]2)CCO1` (centres unmarked) [CBK305467] gave a viability at 28.5 h, 10 µM of 82.3%.
Compound `O=C(O)c1cc(-c2ccccc2)oc1CSCCO` [CBK286559] has a viability at 28.5 h, 10 µM of 92.3%.
`c1ccc(CSc2ncnc3c2oc2ccccc23)cc1` [CBK287398] gave a viability at 28.5 h, 10 µM of 103%.
For `Cc1nn(C)c(C)c1CNC(=O)N1CCN(CC(F)F)CC1` [CBK304249], the viability at 28.5 h, 10 µM was 102%.
`O=S(=O)(Cc1cccc(F)c1F)c1cc2c(N3CCNCC3)nccc2s1` [CBK045690C] showed a viability at 28.5 h, 10 µM of 89.1%.
Compound `CC(C)(C#N)C(C)(C)c1nnn[nH]1` [CBK067072] has a viability at 28.5 h, 10 µM of 85.1%.
Compound `CC12CN3CC(C)(CN(C1)C3c1ccc([N+](=O)[O-])cc1)C2` (centres unmarked) [CBK262665] has a viability at 28.5 h, 10 µM of 95.2%.
`CSCCC(NC(=O)CCc1ccccc1)c1nnc2ccccn12` (centres unmarked) [CBK304350] showed a viability at 28.5 h, 10 µM of 95.4%.
For `O=C1CC(Sc2ccccc2)C(=O)N1c1ccc(Cc2ccc(N3C(=O)CC(Sc4ccccc4)C3=O)cc2)cc1` (centres unmarked) [CBK263797], the viability at 28.5 h, 10 µM was 110%.
With `COC(=O)Cc1nc(NS(=O)(=O)c2ccc(Oc3cccc(Cl)c3C#N)cc2)sc1C` [CBK000744] the viability at 28.5 h, 10 µM was 98.3%.
`COc1ccccc1C(=O)Nc1sc2c(c1C(=O)NCc1ccco1)CCCC2` [CBK265105] showed a viability at 28.5 h, 10 µM of 100%.
For `O=c1cc(CN2CCN(c3ccccc3)CC2)occ1O` [CBK288392], the viability at 28.5 h, 10 µM was 89%.
Compound `O=C(c1cc(F)c(F)cc1F)N1CCC2(CCCN(CCN3CCOCC3)C2)C1` (centres unmarked) [CBK132015] has a viability at 28.5 h, 10 µM of 82.8%.
